The values below come from patent US12247015B2, “3-amino-4H-benzo[e][1,2,4]thiadiazine 1,1-dioxide derivatives as inhibitors of MRGX2” (Solent Therapeutics, LLC, priority 2019, dated 2025).

Test [1] concerns the target hMRGX2 (CHO-K1 cells overexpressing MRGX2) (Homo sapiens (Human), UniProt Q96LB1). The test is described as follows: In vitro inhibition (EC50) of intracellular calcium flux, FLIPR Tetra, substance P stimulation. It counts as cell-based. Particulars: stimulated with MRGX2 ligand substance P, FLIPR Calcium 5, read-out: hMRGX2 Cellular Potency (pEC50) (converted). The gist of the method: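 CHO-K1 cells overexpressing human MRGX2, loaded with Calcium 5 dye for 30 min at 37 °C, then given compound (11-point, top 10 μM).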
On the technique in general: Calcium flux is commonly read through the fluorescence of an indicator in the cells.

The next test addresses human MRGX2 receptor (Homo sapiens (Human), UniProt Q96LB1). The test is described as follows: In vitro radioligand binding assay (Kd). Particulars: membrane from SF9 cells overexpressing human MRGX2; 3H-labeled ligand; pH 7.4, room temperature, 60 minutes. How it is done:
In vitro Radioligand Binding Assay (Kd)
Equilibrium dissociation constants, Kd, for many of the compounds described in the Examples section (“test compounds”) are determined in the presence cellular membrane prepared from SF9 cell lines overexpressing the human MRGX2 receptor. The assay is carried out in a 96-well plate (Greiner V-Bottom #651201). […] The assay mixtures, which comprise MRGX2 receptor, radiolabeled ligand and test compound, are incubated at room temperature (˜22° C.) for 60 minutes to reach equilibrium. After incubation, the assay mixtures are collected on a filter mat (Filtermat A, Perkin Elmer) using a cell harvester (Harvester 96, TOMTEC). The filter mat is completely dried. A solid scintillant (Meltilex, Perkin Elmer) is added to each filter membrane and the level of radioactivity (“Signal”) from each well (assay mixture) is recorded using a scintillation counter (Trilux Microbeta, PerkinElmer). Kd is determined by curve-fitting the dose response data ([I], Signal) for each set of samples to the equation,
[formula] where [I] is the concentration of the test compound. The data are reported as pKd

Sequence of hMRGX2 (CHO-K1 cells overexpressing MRGX2) (Q96LB1 whole entry): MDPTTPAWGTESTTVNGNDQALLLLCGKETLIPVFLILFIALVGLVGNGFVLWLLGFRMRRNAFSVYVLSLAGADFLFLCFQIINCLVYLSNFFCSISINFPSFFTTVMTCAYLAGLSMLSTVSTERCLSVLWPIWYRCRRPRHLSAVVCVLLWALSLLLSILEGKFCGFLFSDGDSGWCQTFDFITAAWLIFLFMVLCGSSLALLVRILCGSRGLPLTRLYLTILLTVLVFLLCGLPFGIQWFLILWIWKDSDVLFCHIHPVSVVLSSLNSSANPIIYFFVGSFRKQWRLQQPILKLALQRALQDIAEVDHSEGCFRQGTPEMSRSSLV
Sequence of human MRGX2 receptor (Q96LB1 whole entry): as above

In the case of `CNC1=NS(=O)(=O)c2cccc(-c3cccc(F)c3Cl)c2N1` [Example 1, 5-(2-chloro-3-fluorophenyl)-3-(methylamino)-4H-benzo[e][1,2,4]thiadiazine 1,1-dioxide], in test [1], the EC50 was 0.0693 µM. Further, the “hMRGX2 Binding Affinity (pKd)” value on human MRGX2 receptor amounted to 6.724.
For the compound `COCCNC1=NS(=O)(=O)c2cccc(-c3cccc(F)c3Cl)c2N1` [Example 2, 5-(2-chloro-3-fluorophenyl)-3-((2-methoxyethyl)amino)-4H-benzo[e][1,2,4]thiadiazine 1,1-dioxide], the EC50 in test [1] is 0.0519 µM. The “hMRGX2 Binding Affinity (pKd)” value at human MRGX2 receptor was found to be 6.984.
Regarding `COCCNC1=NS(=O)(=O)c2cc(F)cc(-c3cccc(F)c3Cl)c2N1` [Example 4, 5-(2-chloro-3-fluorophenyl)-7-fluoro-3-((2-methoxyethyl)amino)-4H-benzo[e][1,2,4]thiadiazine 1,1-dioxide], the EC50 in test [1] was 0.0154 µM. Moreover, the “hMRGX2 Binding Affinity (pKd)” value on human MRGX2 receptor is 6.975.
Regarding `CCNC1=NS(=O)(=O)c2cc(F)cc(-c3cccc(F)c3Cl)c2N1` [Example 6, 5-(2-chloro-3-fluorophenyl)-3-(ethylamino)-7-fluoro-4H-benzo[e][1,2,4]thiadiazine 1,1-dioxide], the EC50 in test [1] was 0.0216 µM. Besides, the “hMRGX2 Binding Affinity (pKd)” value on human MRGX2 receptor was found to be 6.78.
As for `O=S1(=O)N=C(NCC2CC2)Nc2c(-c3cccc(F)c3Cl)cc(F)cc21` [Example 7, 5-(2-chloro-3-fluorophenyl)-3-((cyclopropylmethyl)amino)-7-fluoro-4H-benzo[e][1,2,4]thiadiazine 1,1-dioxide], the EC50 in test [1] is 0.0233 µM. Besides, the “hMRGX2 Binding Affinity (pKd)” value at human MRGX2 receptor is listed as 7.27.
Regarding `O=S1(=O)N=C(NCc2ncccc2F)Nc2c(-c3cccc(F)c3Cl)cccc21` [Example 12, 5-(2-chloro-3-fluorophenyl)-3-(((3-fluoropyridin-2-yl)methyl)amino)-4H-benzo[e][1,2,4]thiadiazine 1,1-dioxide], the EC50 in test [1] is 0.0136 µM. Besides, the “hMRGX2 Binding Affinity (pKd)” value at human MRGX2 receptor was determined as 7.45.
With `O=S1(=O)N=C(NCc2ncccc2F)Nc2c(-c3ccccc3Cl)cc(F)cc21` [Example 16, 5-(2-chlorophenyl)-7-fluoro-3-(((3-fluoropyridin-2-yl)methyl)amino)-4H-benzo[e][1,2,4]thiadiazine 1,1-dioxide], the EC50 in test [1] was 0.0103 µM. The “hMRGX2 Binding Affinity (pKd)” value at human MRGX2 receptor is listed as 7.5.
For `O=S1(=O)N=C(NCc2ncco2)Nc2c(-c3cccc(F)c3Cl)cccc21` [Example 28, 5-(2-chloro-3-fluorophenyl)-3-((oxazol-2-ylmethyl)amino)-4H-benzo[e][1,2,4]thiadiazine 1,1-dioxide], the EC50 in test [1] was 0.0241 µM. In addition, the “hMRGX2 Binding Affinity (pKd)” value at human MRGX2 receptor came out at 7.03.
As to `O=S1(=O)N=C(NCC(F)F)Nc2c(-c3cccc(F)c3Cl)cccc21` [Example 34, 5-(2-chloro-3-fluorophenyl)-3-((2,2-difluoroethyl)amino)-4H-benzo[e][1,2,4]thiadiazine 1,1-dioxide], the EC50 in test [1] was 0.0385 µM. For the same compound, the “hMRGX2 Binding Affinity (pKd)” value on human MRGX2 receptor was 7.025.
For the compound `COCCNC1=NS(=O)(=O)c2cccc(-c3ccccc3Cl)c2N1` [Example 35, 5-(2-chlorophenyl)-3-((2-methoxyethyl)amino)-4H-benzo[e][1,2,4]thiadiazine 1,1-dioxide], the EC50 in test [1] is 0.092 µM. Also, the “hMRGX2 Binding Affinity (pKd)” value at human MRGX2 receptor was determined as 4.7.
For `CCNC1=NS(=O)(=O)c2cccc(-c3cccc(F)c3Cl)c2N1` [Example 39, 5-(2-chloro-3-fluorophenyl)-3-(ethylamino)-4H-benzo[e][1,2,4]thiadiazine 1,1-dioxide], in that order: 0.052 µM and 7.055.
Consider `CNC1=NS(=O)(=O)c2cccc(-c3ccccc3Cl)c2N1` [Example 43, 5-(2-chlorophenyl)-3-(methylamino)-4H-benzo[e][1,2,4]thiadiazine 1,1-dioxide], for which the EC50 in test [1] was 0.102 µM. Also, the “hMRGX2 Binding Affinity (pKd)” value on human MRGX2 receptor is reported as 6.47.
The matching figures for `O=S1(=O)N=C(NCc2nccs2)Nc2c(-c3cccc(F)c3Cl)cccc21` [Example 65, 5-(2-chloro-3-fluorophenyl)-3-((thiazol-2-ylmethyl)amino)-4H-benzo[e][1,2,4]thiadiazine 1,1-dioxide]: 0.0107 µM and 7.055.
`O=S1(=O)N=C(NCc2ncccn2)Nc2c(-c3cccc(F)c3Cl)cccc21` [Example 66, 5-(2-chloro-3-fluorophenyl)-3-((pyrimidin-2-ylmethyl)amino)-4H-benzo[e][1,2,4]thiadiazine 1,1-dioxide]: the EC50 in test [1] is 0.0294 µM. For the same compound, on human MRGX2 receptor, the “hMRGX2 Binding Affinity (pKd)” value is 7.22.
For the compound `CNC1=NS(=O)(=O)c2cccc(-c3cccc(F)c3C#N)c2N1` [Example 89, 2-fluoro-6-(3-(methylamino)-1,1-dioxido-4H-benzo[e][1,2,4]thiadiazin-5-yl)benzonitrile], the EC50 in test [1] is 0.0692 µM. Moreover, the “hMRGX2 Binding Affinity (pKd)” value at human MRGX2 receptor amounted to 6.35.
Consider `O=S1(=O)N=C(NCCCF)Nc2c(-c3cccc(F)c3Cl)cccc21` [Example 152, 5-(2-chloro-3-fluorophenyl)-3-((3-fluoropropyl)amino)-4H-benzo[e][1,2,4]thiadiazine 1,1-dioxide], for which, in test [1], the EC50 was 0.223 µM.
Take `CO[C@@H](C)CCNC1=NS(=O)(=O)c2cccc(-c3cccc(F)c3Cl)c2N1` [Example 155, (S)-5-(2-chloro-3-fluorophenyl)-3-((3-methoxybutyl)amino)-4H-benzo[e][1,2,4]thiadiazine 1,1-dioxide]: in test [1], the EC50 is 0.0352 µM.
On to `COCCNC1=NS(=O)(=O)c2cccc(-c3cccc(F)c3C3CC3)c2N1` [Example 156, 5-(2-cyclopropyl-3-fluorophenyl)-3-((2-methoxyethyl)amino)-4H-benzo[e][1,2,4]thiadiazine 1,1-dioxide], for which the EC50 in test [1] was 0.0475 µM.
Take `CNC1=NS(=O)(=O)c2cccc(-c3cccc(F)c3C3CC3)c2N1` [Example 157, 5-(2-cyclopropyl-3-fluorophenyl)-3-(methylamino)-4H-benzo[e][1,2,4]thiadiazine 1,1-dioxide]: the EC50 in test [1] was 0.0562 µM.
As to `CC(C)NC1=NS(=O)(=O)c2cccc(-c3cccc(F)c3Cl)c2N1` [Example 158, 5-(2-chloro-3-fluorophenyl)-3-(isopropylamino)-4H-benzo[e][1,2,4]thiadiazine 1,1-dioxide], in test [1], the EC50 was 0.229 µM.
On to `O=S1(=O)N=C(NC2CC2)Nc2c(-c3cccc(F)c3Cl)cccc21` [Example 159, 5-(2-chloro-3-fluorophenyl)-3-(cyclopropylamino)-4H-benzo[e][1,2,4]thiadiazine 1,1-dioxide], for which the EC50 in test [1] is 0.0536 µM.
Take `O=S1(=O)N=C(NCCOCC(F)F)Nc2c(-c3cccc(F)c3Cl)cccc21` [Example 160, 5-(2-chloro-3-fluorophenyl)-3-((2-(2,2-difluoroethoxy)ethyl)amino)-4H-benzo[e][1,2,4]thiadiazine 1,1-dioxide]: the EC50 in test [1] is 0.0933 µM.
Turning to `N#Cc1c(F)cccc1-c1cccc2c1NC(NCc1ncco1)=NS2(=O)=O` [Example 161, 2-fluoro-6-(3-((oxazol-2-ylmethyl)amino)-1,1-dioxido-4H-benzo[e][1,2,4]thiadiazin-5-yl)benzonitrile], the EC50 in test [1] was 0.0615 µM.
Turning to `CCc1ccccc1-c1cccc2c1NC(NCCOC)=NS2(=O)=O` [Example 163, 5-(2-ethylphenyl)-3-((2-methoxyethyl)amino)-4H-benzo[e][1,2,4]thiadiazine 1,1-dioxide], in test [1], the EC50 is 0.18 µM.
Take `O=S1(=O)N=C(NCc2ccco2)Nc2c(-c3cc(F)cc(F)c3)cccc21` [Example 164, 5-(3,5-difluorophenyl)-3-((furan-2-ylmethyl)amino)-4H-benzo[e][1,2,4]thiadiazine 1,1-dioxide]: the EC50 in test [1] is 0.225 µM.
`CCNC1=NS(=O)(=O)c2cccc(-c3cccc(F)c3F)c2N1` [Example 165, 5-(2,3-difluorophenyl)-3-(ethylamino)-4H-benzo[e][1,2,4]thiadiazine 1,1-dioxide]: the EC50 in test [1] is 0.288 µM.
Take `COC(C)CNC1=NS(=O)(=O)c2cccc(-c3cc(F)cc(F)c3)c2N1` (stereo not drawn) [Example 166, 5-(3,5-difluorophenyl)-3-((2-methoxypropyl)amino)-4H-benzo[e][1,2,4]thiadiazine 1,1-dioxide]: the EC50 in test [1] is 0.34 µM.
For `COC1CC(NC2=NS(=O)(=O)c3cccc(-c4cccc(F)c4Cl)c3N2)C1` (stereo not drawn) [Example 167, 5-(2-chloro-3-fluorophenyl)-3-((3-methoxycyclobutyl)amino)-4H-benzo[e][1,2,4]thiadiazine 1,1-dioxide], the EC50 in test [1] is 0.394 µM.
Take `COCCNC1=NS(=O)(=O)c2cccc(-c3cc(F)cc(F)c3F)c2N1` [Example 168, 3-((2-methoxyethyl)amino)-5-(2,3,5-trifluorophenyl)-4H-benzo[e][1,2,4]thiadiazine 1,1-dioxide]: the EC50 in test [1] was 0.47 µM.
The same measure, in the same setting: with `COCCNC1=NS(=O)(=O)c2cccc(-c3ccc(F)c(F)c3C)c2N1` [Example 170, 5-(3,4-difluoro-2-methylphenyl)-3-((2-methoxyethyl)amino)-4H-benzo[e][1,2,4]thiadiazine, 1,1-dioxide] the figure was 0.638 µM.
